In patent US11078534B2, “Photocleavable nucleotide reagents with high stability” (Roche Molecular Systems, Inc., priority 2017, dated 2021):

What was measured:
[1] = Photocleavage by UV-LED irradiation (UPLC-MS); type: physicochemical; conditions: UV-LED λmax=393 nm
Experimental: Two aqueous mixtures of dATP-SPh-NPP and ATP-DMNPE (300 μM each) were prepared in sodium phosphate buffer (100 mM, pH 7.0). Both samples were irradiated simultaneously with light from an UV-LED lamp (InGaN, Quantum well, λmax=393 nm, 0.18 W/LED) in open vials without shaking or stirring. After 0, 1, 2, 4, 8, and 16 min. the irradiation was shortly paused for sample removal (20 μL) and subsequent UPLC-MS analysis. The peak areas at 260 nm were used to calculate the percentage of starting material and photocleavage products. The molecular identities of the starting materials and cleavage products were confirmed by mass spectrometry.

polymerase enzyme = test: Real-Time PCR (TaqMan PCR) amplification with caged dATP, with and without UV exposure; type: biochemical; conditions: 400 μM dATP-SPh-NPP instead of dATP, 400 cp target DNA
Experimental: Real-Time PCR (TaqMan® PCR) mixtures with a total volume of 50 μL were prepared by combining three components termed PCR master mixture (20 μL), buffer mixture (20 μL), and dNTP mixture (10 μL). All PCR components were prepared from DEPC water. The PCR master mixture contained tricine buffer (pH 8.2), potassium acetate, glycerol, DMSO, detergent, target DNA (400 cp), polymerase aptamer, probe, primers, SYBR green dye, and polymerase enzyme. The buffer mixture contained manganese acetate (8.3 mM) and imidazole (0, 3.0, or 6.0 mM). The dNTP mixture contained dATP (400 μM), dCTP (400 μM), dGTP (400 μM), and dUTP (800 μM). Another dNTP mixture contained dATP-SPh-NPP (400 μM) instead of dATP. The final concentration of DNA target was 400 cp/reaction.
TaqMan® PCRs of equal composition were positioned on two separate sections of a 96-well plate. Each section contained PCR mixtures with regular dNTPs and PCR mixtures containing dATP-SPh-NPP. Each PCR was prepared as triplicate. One section of the plate was covered with aluminum foil, whereas the other section was exposed to light from an UV-LED lamp (InGaN, Quantum well, λmax=393 nm, 0.18 W/LED) for 8.0 min. at room temperature. […] The analysis of PCR growth curves was performed from fluorescence data collected in the Cy5.5 channel, while analysis of melting curves was based on fluorescence data collected in the FAM channel (465-510 nm).

[2] = Thermostability study at 65° C. (UPLC-MS); type: physicochemical; conditions: up to 120 h; for degradation at 65° C. (percentage of starting material and degradation products, peak areas at 260 nm): 300 μM, 40% DMSO, 1.0 M potassium acetate
Experimental: An aqueous mixture was prepared, containing 300 μM dATP-SPh-NPP, 40% DMSO and 1.0 M potassium acetate. For reference another mixture with 300 μM dATP replacing dATP-SPh-NPP was prepared. 150 μL of each mixture were incubated at 65° C. in a Thermoshaker. After 0, 2, 18, 25, and 120 h samples of each solution (20 μL) were analyzed by UPLC-MS (Ultra performance liquid chromatography—mass spectrometry). The peak areas at 260 nm were used to calculate the percentage of starting material and degradation products.

[3] = 5′-hydroxyl protecting group on phosphoramidites; cited from earlier work

Molecule	irradiation time for full cleavage ([1]; 300 μM, 100 mM sodium phosphate buffer pH 7.0) [min]	photocleavage speed compared to ATP-DMNPE ([1]; both irradiated simultaneously, pH 7.0)	dATP released by irradiation ([1]; irradiation for 5 minutes, 300 μM, 100 mM sodium phosphate buffer pH 7.0) [%]	PCR amplification after UV irradiation (polymerase enzyme; UV light for 8.0 min. at room temperature)	PCR amplification, no UV exposure (polymerase enzyme; no UV exposure)	degradation at 65° C. (percentage of starting material and degradation products, peak areas at 260 nm) [2]	thermostability compared to dATP [2]	increase in photo-deprotection efficiency compared to conventional NPPOC [3] [fold]
thiophenyl o-nitrophenylpropyl dATP [dATP-SPh-NPP]	8	significantly faster	> 90	leads to DNA amplification	prevents PCR amplification	no degradation products were observed	significantly more thermostable than dATP	
thiophenyl-2-(2-nitrophenyl)-propoxycarbonyl [SPh-NPPOC]								12
Nc1ncnc2c1ncn2[C@H]1C[C@H](O)[C@@H](COP(=O)(O)OP(=O)(O)OP(=O)(O)O)O1 [dATP, reference compound]						quickly degraded to the mono- and diphosphates		
